Reference: patent US20180333399A1, “METHOD OF IMPROVING LIVER FUNCTION” (NAIA METABOLIC, INC., priority 2012, published 2018)
Marks after values point to notes of the source that are not given here.

What was measured:
type 2 diabetes patients = assay: 24 week randomised, placebo-controlled double-blind clinical trial: blood ALT levels; assay type: in vivo, human; conditions: for ΔALT Week 12, Mean ± SD / ΔALT Week 12, Median (range): change from baseline (Day 0) to Week 12; for ΔALT Week 12, Mean ± SD / ΔALT Week 12, Median (range) / ΔALT Week 24, Mean ± SD / ΔALT Week 24, Median (range): 40 mg b.i.d.; for ΔALT Week 24, Mean ± SD / ΔALT Week 24, Median (range): change from baseline (Day 0) to Week 24; for ΔALT Week 12, MTZ-Placebo / ΔALT Week 24, MTZ-Placebo: difference of mean ΔALT versus matching placebo group
Text: The primary efficacy endpoint for the clinical trial was a reduction in HbA1c (ΔHbA1c) from baseline with methazolamide, relative to placebo, after 24 weeks of treatment. The primary safety measurement was the effect of methazolamide, compared to placebo, on venous blood gas parameters; a measure of acidosis. The clinical trial initially enrolled type 2 diabetes patients who were not treated with any anti-diabetic agent prior to entry into the trial. […] The metformin dose was not altered throughout the trial. Participant baseline demographic data are provided in Table 1-1, Participants randomized into the clinical trial were administered either daily doses of methazolamide (40 mg b.i.d.) or placebo for 24 weeks. Methazolamide was taken as 1×30 mg capsule and 1×10 mg capsule per dose at breakfast and dinner. Placebo (microcrystalline cellulose) was administered in identical presentation. […] Mean ALT levels over time are depicted in FIGS. 1(A) and 1(B).

db/db mice [1] = assay: Hepatic lipid content (modified Folch extraction) in db/db mice; assay type: in vivo
Procedure: (§1) All reagents were purchased from Sigma-Aldrich (Australia). Dosing solutions of methazolamide were prepared fresh daily in sterile saline:PEG400 at 65:35 (v/v), protected from light and stored at room temperature. Male db/db mice (Animal Resource Centre, Australia) were housed with free access to water and food (standard rodent diet: Barastoc Rat & Mouse, Ridley Agriproducts, Australia). Room temperature was maintained at 21±2° C., humidity 40-70%, with a 12 h light/dark cycle. Mice were treated with methazolamide (50 mg/kg/day) or vehicle (n=4 per group) by single oral gavage doses each day for 9 days.
A separate portion of the liver (right lobe) was used to measure hepatic lipid content. Lipid was extracted using a modified Folch protocol. The tissue was homogenised in 2:1 chloroform/methanol solution (10 ml), and filtered into a […] glass centrifuge tube. An additional 5 ml of 2:1 chloroform/methanol solution was added, followed by 2.5 ml of 0.9% NaCl. After thorough mixing, the extract was centrifuged for 5 min at 2,000 g at 10° C. After discarding the aqueous layer, the organic layer was dried under nitrogen, and total lipid content was assessed by weighing.

db/db mice [2] = assay: Liver histology (hematoxylin and eosin) in db/db mice; assay type: in vivo; conditions: after 9 days, 50 mg/kg/day; 3 of the 4 vehicle-treated animals had a high degree of hepatic steatosis
Procedure: as §1
(§2) Daily blood samples were obtained from the tail tip of each mouse and glucose levels measured using a glucometer (AccuCheck II; Roche, Australia). At the end of the study, the animals were humanely killed and a portion of liver tissue (left lobe) was removed and fixed in 10% neutral-buffered formalin. The liver tissue was paraffin-embedded, sectioned (5 μm), mounted and stained with hematoxylin and eosin.

db/db mice [3] = assay: Fasting blood glucose in db/db mice, 9 days oral gavage; assay type: in vivo
Procedure: as §1, §2

[4] = Week 12, methazolamide 40 mg b.i.d., listed as All MTZ (Alone + Met)
[5] = methazolamide 40 mg b.i.d., listed as All MTZ (Alone + Met)
[6] = methazolamide 40 mg b.i.d., listed as MTZ Alone
[7] = baseline (Day 0), before treatment, type 2 diabetes patients, listed as MTZ Alone
[8] = listed as All MTZ (Alone + Met)

## CC(=O)/N=c1/sc(S(N)(=O)=O)nn1C [methazolamide]
Type 2 diabetes patients; [4]
  ALT Week 12, Mean ± SD: 20.9 ± 9.8 U/L
  ALT Week 12, Median (range): 19 (8-50) U/L
Type 2 diabetes patients; Week 12, methazolamide 40 mg b.i.d., listed as MTZ Alone
  ALT Week 12, Mean ± SD: 22.1 ± 10.1 U/L
Type 2 diabetes patients; [5]
  ALT Week 24, Mean ± SD: 21.3 ± 12.3 U/L
  ALT Week 24, Median (range): 20 (7-64) U/L
Type 2 diabetes patients; [6]
  ALT Week 24, Mean ± SD: 22.0 ± 12.6 U/L
  ALT Week 24, Median (range): 17 (9-49) U/L
Type 2 diabetes patients; baseline (Day 0), before treatment, type 2 diabetes patients, listed as All MTZ (Alone + Met)
  ALT Day 0, Median (range): 27.5 (16-83) U/L
Type 2 diabetes patients; [7]
  ALT Day 0, Mean ± SD: 33.1 ± 16.9 U/L
  ALT Day 0, Median (range): 29 (16-83) U/L
Type 2 diabetes patients; [8]
  ΔALT Week 12, Mean ± SD: −10.9 ± 7.7
  ΔALT Week 12, Median (range): −9 (−40, −2)
  ΔALT Week 24, Mean ± SD: −10.7 ± 8.2
  ΔALT Week 24, Median (range): −8.5 (−34, +4)
  ΔALT Week 24, MTZ-Placebo: −9.3^†§
Type 2 diabetes patients; listed as MTZ Alone
  ΔALT Week 12, Mean ± SD: −10.4 ± 9.3
  ΔALT Week 12, Median (range): −8.5 (−40, −4)
  ΔALT Week 24, Mean ± SD: −11.0 ± 8.1
  ΔALT Week 24, Median (range): −8 (−34, −3)
  ΔALT Week 24, MTZ-Placebo: −8.0
Type 2 diabetes patients; Week 12, listed as All MTZ (Alone + Met)
  ΔALT Week 12, MTZ-Placebo: −14.8*^§
Type 2 diabetes patients; Week 12, listed as MTZ Alone
  ΔALT Week 12, MTZ-Placebo: −18.1
Type 2 diabetes patients; patients treated with methazolamide
  time of treatment after which reduction in blood ALT levels was evident: 1 week
Type 2 diabetes patients; plateau maintained for the remainder of the 24 week treatment period
  time of treatment after which reduced ALT level reached a plateau: 2 weeks
db/db mice [1]; Day 9, 50 mg/kg/day oral gavage, p < 0.05 vs vehicle
  Liver lipid content (% of liver weight), Day 9: 7.4 ± 1.2%
db/db mice [1]; after 9 days of treatment, db/db mice
  liver lipid content (w/w) lower compared to vehicle treated controls: 48%
db/db mice [2]
  treated db/db mice that appeared to have greatly reduced hepatic steatosis (liver histology): 2 of the 4
db/db mice [3]; Day 0 (baseline), male db/db mice, n=4
  Fasting Blood Glucose, Day 0: 26.0 ± 1.2 mM
db/db mice [3]; Day 9, 50 mg/kg/day oral gavage, p < 0.05 vs Day 0
  Fasting Blood Glucose, Day 9: 13.7 ± 2.4 mM
db/db mice [3]; db/db mice, 50 mg/kg/day, 9 days
  reduction of fasting blood glucose levels relative to vehicle treated-controls: 47%
